# Measurements reported in patent US20250320202A1, “PRMT5 INHIBITOR, PREPARATION METHOD THEREFOR, AND PHARMACEUTICAL USE THEREOF” (Abbisko Therapeutics Co., Ltd., priority 2022, published 2025).
# Experiments:
# [1] = system: HCT116 MTAP wild-type cells; assay: Human colon cancer HCT116 cell proliferation inhibition test (CellTiter-Glo, 6 days), MTAP wild-type cells; assay type: cell-based; conditions: HCT-116, 144 h
# Method: (§1) 1. HCT116 MTAP knockout and MTAP wild-type cells were plated in 96-well flat bottom plates, and cultured overnight with McCoy's 5A medium containing 10% fetal bovine serum+1% penicillin-streptomycin at 37° C. and 5% CO2.
# (§2) 2. On the next day, the compound was dissolved with DMSO, diluted with DMSO and medium successively and transferred to the cell plate. The final concentration of the compound was 10 μM, the compound was diluted 4 times, with 9 concentration gradients, and DMSO control was added.
# (§3) 3. Cells that have not been treated with the compound were removed. CellTiter-Glo Luminescent Cell Viability Assay (Promega) was used to detect cell viability, the operation was performed with reference to the package insert of the kit, and then the cell plate was placed on EnVision Multilabel Reader to detect the cold light signal.
# (§4) 4. Meanwhile, the cell plate treated with the compound was cultured at 37° C. and 5% CO2 for 6 consecutive days.
# (§5) 5. Then, CellTiter-Glo was also used to detect cell viability.
# (§6) 6. Finally, the four-parameter dose-response curve module of GraphPad Prism v 9.2.0 software was used to plot the dose-response curve and calculate the IC50 for proliferation inhibition (unit: nM).
# [2] = system: HCT116 MTAP knockout cells; assay: Human colon cancer HCT116 cell proliferation inhibition test (CellTiter-Glo, 6 days), MTAP knockout cells; assay type: cell-based; conditions: HCT-116, 144 h
# Method: as §1, §2, §3, §4, §5, §6
Compound,IC50 [1],IC50 [2]
"Cn1cc(N(C(=O)c2cc3c(cc2F)nc(N)c2cnn(C)c23)[C@@H]2COc3nc(C(F)(F)F)ccc32)cn1 [Example 2, (S)-4-amino-7-fluoro-1-methyl-N-(1-methyl-1H-pyrazol-4-yl)-N-(6-(trifluoromethyl)-2,3-dihydrofuro[2,3-b]pyridin-3-yl)-1H-pyrazolo[4,3-c]quinolin-8-carboxamide]",30 nM,1 nM
"Cn1cc(N(C(=O)c2cc3c(cc2F)nc(N)c2cnn(C)c23)C2COc3cc(C(F)(F)F)ccc32)cn1 (stereo not shown) [Example 21, 4-amino-7-fluoro-1-methyl-N-(1-methyl-1H-pyrazol-4-yl)-N-(6-(trifluoromethyl)-2,3-dihydrobenzofuran-3-yl)-1H-pyrazolo[4,3-c]quinolin-8-carboxamide]",79 nM,0.8 nM
"Nc1nc2ccc(C(=O)N(CC3CC3)C3CCc4cc(C(F)(F)F)ccc43)cc2c2cnccc12 (stereo not shown) [Example 108, 5-amino-N-(cyclopropylmethyl)-N-(5-(trifluoromethyl)-2,3-dihydro-1H-inden-1-yl)benzo[c][2,6]naphthyridin-9-carboxamide]",1420 nM,36 nM
"Nc1nc2ccc(C(=O)N(CC3CC3)C3COc4cc(C(F)(F)F)ccc43)cc2c2cnccc12 (stereo not shown) [Example 109, 5-amino-N-(cyclopropylmethyl)-N-(6-(trifluoromethyl)-2,3-dihydrobenzofuran-3-yl)benzo[c][2,6]naphthyridin-9-carboxamide]",824 nM,15 nM
"Cn1cc(N(C(=O)c2ccc3nc(N)c4ccncc4c3c2)C2CCc3cc(C(F)(F)F)ccc32)cn1 (stereo not shown) [Example 132, 5-amino-N-(1-methyl-1H-pyrazol-4-yl)-N-(5-(trifluoromethyl)-2,3-dihydro-1H-inden-1-yl)benzo[c][2,6]naphthyridin-9-carboxamide]",1950 nM,44 nM
"Cn1cc(N(C(=O)c2ccc3nc(N)c4ccncc4c3c2)C2COc3cc(C(F)(F)F)ccc32)cn1 (stereo not shown) [Example 133, 5-amino-N-(1-methyl-1H-pyrazol-4-yl)-N-(6-(trifluoromethyl)-2,3-dihydrobenzofuran-3-yl)benzo[c][2,6]naphthyridin-9-carboxamide]",708 nM,8 nM
"Cn1cc(N(C(=O)c2cc3c4c(c(N)nc3cc2F)COC4)C2CCc3nc(C(F)(F)F)ccc32)cn1 (stereo not shown) [Example 160, 4-amino-7-fluoro-N-(1-methyl-1H-pyrazol-4-yl)-N-(2-(trifluoromethyl)-6,7-dihydro-5H-cyclopenta[b]pyridin-5-yl)-1,3-dihydrofuro[3,4-c]quinolin-8-carboxamide]",335 nM,17 nM
"Cn1cc(N(C(=O)c2ccc3nc(N)c4c(cnn4C)c3c2)C2COc3cc(C(F)(F)F)ccc32)cn1 (stereo not shown) [Example 165, 4-amino-3-methyl-N-(1-methyl-1H-pyrazol-4-yl)-N-(6-(trifluoromethyl)-2,3-dihydrobenzofuran-3-yl)-3H-pyrazolo[3,4-c]quinolin-8-carboxamide]",2510 nM,35 nM
"Cn1ccc(N(C(=O)c2cc3c(cc2F)nc(N)c2cnn(C)c23)C2CCc3cc(C(F)(F)F)ccc32)n1 (stereo not shown) [Example 168, 4-amino-7-fluoro-1-methyl-N-(1-methyl-1H-pyrazol-3-yl)-N-(5-(trifluoromethyl)-2,3-dihydro-1H-inden-1-yl)-1H-pyrazolo[4,3-c]quinolin-8-carboxamide]",276 nM,0.3 nM
"Cn1ncc2c(N)nc3cc(O)c(C(=O)N(c4nccs4)[C@@H]4CCc5cc(C(F)(F)F)ccc54)cc3c21 [Example 184, (R)-4-amino-7-hydroxy-1-methyl-N-(thiazol-2-yl)-N-(5-(trifluoromethyl)-2,3-dihydro-1H-inden-1-yl)-1H-pyrazolo[4,3-c]quinolin-8-carboxamide]",> 10000 nM,> 10000 nM
"Cn1ncc2c(N)nc3cc(F)c(C(=O)N(CC(F)(F)F)[C@@H]4COc5cc(C(F)(F)F)ccc54)cc3c21 [Example 185, (S)-4-amino-7-fluoro-1-methyl-N-(2,2,2-trifluoroethyl)-N-(6-(trifluoromethyl)-2,3-dihydrobenzofuran-3-yl)-1H-pyrazolo[4,3-c]quinolin-8-carboxamide]",1260 nM,28 nM
"Cn1ncc2c(N)nc3cc(F)c(C(=O)N(CC(F)(F)F)[C@H]4COc5cc(C(F)(F)F)ccc54)cc3c21 [Example 186, (R)-4-amino-7-fluoro-1-methyl-N-(2,2,2-trifluoroethyl)-N-(6-(trifluoromethyl)-2,3-dihydrobenzofuran-3-yl)-1H-pyrazolo[4,3-c]quinolin-8-carboxamide]",> 10000 nM,506 nM
"Cn1cc(N(C(=O)c2ccc3nc(N)c4c(cnn4C)c3c2)[C@@H]2COc3cc(C(F)(F)F)ccc32)cn1 [Example 187, (S)-4-amino-3-methyl-N-(1-methyl-1H-pyrazol-4-yl)-N-(6-(trifluoromethyl)-2,3-dihydrobenzofuran-3-yl)-3H-pyrazolo[3,4-c]quinolin-8-carboxamide]",2440 nM,50 nM
"Cn1cc(N(C(=O)c2ccc3nc(N)c4c(cnn4C)c3c2)[C@H]2COc3cc(C(F)(F)F)ccc32)cn1 [Example 188, (R)-4-amino-3-methyl-N-(1-methyl-1H-pyrazol-4-yl)-N-(6-(trifluoromethyl)-2,3-dihydrobenzofuran-3-yl)-3H-pyrazolo[3,4-c]quinolin-8-carboxamide]",> 10000 nM,2640 nM
"Nc1nc2ccc(C(=O)N(CC3CC3)[C@H]3COc4cc(C(F)(F)F)ccc43)cc2c2cnccc12 [Example 193, (R)-5-amino-N-(cyclopropylmethyl)-N-(6-(trifluoromethyl)-2,3-dihydrobenzofuran-3-yl)benzo[c][2,6]naphthyridin-9-carboxamide]",9090 nM,452 nM
"Nc1nc2ccc(C(=O)N(CC3CC3)[C@@H]3COc4nc(C(F)(F)F)ccc43)cc2c2cnccc12 [Example 195, (S)-5-amino-N-(cyclopropylmethyl)-N-(6-(trifluoromethyl)-2,3-dihydrofuro[2,3-b]pyridin-3-yl)benzo[c][2,6]naphthyridin-9-carboxamide]",423 nM,8.6 nM
"Cn1ccc(N(C(=O)c2cc3c(cc2F)nc(N)c2cnn(C)c23)[C@@H]2CCc3cc(C(F)(F)F)ccc32)n1 [Example 197, (R)-4-amino-7-fluoro-1-methyl-N-(1-methyl-1H-pyrazol-3-yl)-N-(5-(trifluoromethyl)-2,3-dihydro-1H-inden-1-yl)-1H-pyrazolo[4,3-c]quinolin-8-carboxamide]",264 nM,0.9 nM
"Cn1cc(N(C(=O)c2cc3c4c(c(N)nc3cc2F)COC4)[C@@H]2COc3cc(C(F)(F)F)ccc32)cn1 [Example 201, (S)-4-amino-7-fluoro-N-(1-methyl-1H-pyrazol-4-yl)-N-(6-(trifluoromethyl)-2,3-dihydrobenzofuran-3-yl)-1,3-dihydrofuro[3,4-c]quinolin-8-carboxamide]",78 nM,2 nM
"C[C@@H](c1ncccn1)N(C(=O)c1cc2c3c(c(N)nc2cc1F)COC3)[C@@H]1CCc2cc(C(F)(F)F)ccc21 [Example 224, 4-amino-7-fluoro-N-((S)-1-(pyrimidin-2-yl)ethyl)-N-((R)-5-(trifluoromethyl)-2,3-dihydro-1H-inden-1-yl)-1,3-dihydrofuro[3,4-c]quinolin-8-carboxamide]",–,640 nM
